From article PMC11329504, “Identification of novel small molecule-based strategies of COL7A1 upregulation and readthrough activity for the treatment of recessive dystrophic epidermolysis bullosa” (Scientific Reports, 2024)
Read-outs that look alike come from different tables or passages of the source.

How the values were obtained:
[1] = test system: total C7 in HEK293^R578X cells; assay: AlphaLISA quantification of total C7 in recombinant HEK293^R578X cells; assay type: cell-based, human
Experimental: (§1) The AlphaLISA assay was developed in-house by using the biotin-conjugated rabbit polyclonal antibody anti-C7 (LSBio LS-298147) and conjugating the acceptor beads (PerkinElmer 6772001) to a monoclonal anti-Collagen type VII antibody produced in mouse, clone LH7.2 (Thermo MA5-13,432). Formulation of the mAb clone LH7.2 was exchanged to PBS and concentrated 5 × by using Amicon® Ultra-0.5 centrifugal filters up to 1 mg/ml. The conjugation procedure was carried out according to the protocol provided by PerkinElmer.
(§2) For compound treatment in RDEB patient-derived transformed keratinocytes, 5,000 cells were plated in 20 µL of supplemented KGM media containing 20 ng/mL TGFβ2 (SIGMA GF113) without GA-1000 in 384-well cell culture plates (Greiner 781098). The day after, 5 µL of test compounds prepared 5 × in supplemented KGM without GA-1000 were added over cells and incubated for 48 h at 37 °C and 5% CO2. For compound treatment in HEK293^R578X, 10,000 cells were plated in 20 μL of DMEM (High Glucose, 2 mM L-Glutamine, sodium pyruvate, and FBS 10%) in 384-well cell culture plates (Greiner 781,098,). The day after, 5 μL of test compounds prepared 5 × in DMEM complete medium were added over cells and incubated for 48 h at 37 °C and 5% CO2.
(§3) After the treatment process, 2.5 µL of RIPA buffer 10 x (Abcam ab156034) were added over the […] of cells for 20 min at room temperature to obtain a complete cell lysis. Then, 2 μL of sample (i.e., cell lysate with supernatant) were transferred to the AlphaLISA plate (PerkinElmer 6,059,340) containing […] of antibodies mixture ([…] of acceptor Beads-Ab and […] of biotin-rAb) prepared in AlphaLISA buffer 1 x (PerkinElmer AL00F). The reaction was incubated for 90 min at room temperature. Finally, 10 μL of […] of donor beads (PerkinElmer 6760002,) were added to the reaction under subdued light, mixed gently, and incubated for 3 h at room temperature. AlphaLISA signal was detected with an Envision microplate reader (Perkin Elmer) using the following setting: Filter: AlphaScreen, Excitation time: 180 ms, Integration time: 300 ms.
(§4) Statistical analyses were performed using GraphPad Prism v. 7.04 (La Jolla, California). Results are shown as mean ± SD of experimental replicates. Dose–response curves to assess compound treatment effect were plotted in a four-parameter logistic model. Relative EC50, representing the total drug concentration producing a 50% effect, was calculated in the four-parameter logistic equation. Comparisons of collagen protein and mRNA expression in different experimental conditions were made using ANOVA, followed by a post hoc test. statistical significance was considered with p values < 0.05.

[2] = test system: truncated and full-length C7 in RDEB_L1, RDEB_L5 and HEK293^R578X cells; assay: Western blot detection of truncated and full-length C7; assay type: cell-based, human; settings: RDEB_L1, RDEB_L5 and HEK293^R578X cells
Experimental: For western blot, RDEB or normal human keratinocytes were lysed in protein extraction buffer (50 mM Tris–HCl [pH 7.5], 100 mM NaCl, 1% Nonidet P-40, and 4 mM EDTA) containing proteinase inhibitors cocktail (Complete Mini, EDTA free; Roche Diagnostics, Mannheim, Germany). Lysates were incubated for 30 min on ice and centrifuged at 15,000 g for 30 min at 4 °C. Supernatants were then collected and concentrated by ultrafiltration using Amicon Ultra columns (10 kDa; Millipore, Ireland). Protein concentrations were measured using the Bradford assay (Bio-Rad, Hercules, CA). For each sample, […] total protein was resolved on NuPAGE Novex 3%–8% Tris–Acetate gel electrophoresis (Invitrogen, Carlsbad, CA) and electrotransferred to nitrocellulose membranes (Invitrogen, Carlsbad, CA). For type VII collagen analysis, blots were probed with a monospecific polyclonal anti-C7 antibody (a generous gift from Dr. A. Nystrom, University of Freiburg). Invitrogen anti-MDH1 polyclonal antibody (PA550446, 1:1000) was used to detect MDH1. Standard antibodies against a reference protein were used as a loading control, as indicated. Visualization of the resulting signal was performed by incubating with horseradish peroxidase (HRP)- conjugated anti-rabbit antibody (Amersham, Burlington, MA) and West Pico Chemiluminescent Substrate (Pierce, Rockford, IL).

[3] = test system: NHK cells; assay: Cytotoxicity, ATP levels, normal human keratinocytes (NHK); assay type: cell-based; settings: NHK cells, ATP levels, at 40 µM
Experimental: The viability of RDEB patient-derived cell lines or NHK was evaluated by measuring the ATP levels as an indirect readout of the potential cytotoxicity effect of compounds. Cells were plated and treated exactly with the same conditions as those followed in the AlphaLISA assay, described above. To measure ATP levels, cells were processed using the ATPlite™ 1step luminescence-based assay (PerkinElmer 6,016,731), following the manufacturer’s protocol. 25 μL of ATPlite™ reagent was added directly over cells and plates were covered with a sealing film and shaken for 25 min using a microtiter plate shaker. Luminescence was measured in a Luminoskan Ascent luminometer (Thermo Fisher Scientific). 10 μM of Staurosporine was used as a reference compound and control for the total cytotoxicity.

[4] = test system: total (truncated + full length) C7 in RDEB_L1 cells; assay: AlphaLISA quantification of total C7 in RDEB_L1 cells; assay type: cell-based, human
Experimental: as §1, §2, §3, §4

[5] = test system: total (truncated + full length) C7 in RDEB_L5 cells; assay: AlphaLISA quantification of total C7 in RDEB_L5 cells; assay type: cell-based, human
Experimental: as §1, §2, §3, §4

CN[C@@H]1[C@@H](O)[C@@H](O[C@@H]2[C@@H](O)[C@H](O[C@H]3O[C@H]([C@@H](C)O)[C@@H](O)[C@H](O)[C@H]3N)[C@@H](N)C[C@H]2N)OC[C@]1(C)O [Compound G418, G418, reference compound]
Increase in C7 levels Emax, % vs baseline ([1]; at 40 µM): 71 ± 6 at 40 % vs baseline | EC50 ([1]; total C7 AlphaLISA, 48 h, relative EC50, mean ± SD, read-out: Increase in C7 levels EC50): 16 ± 0.09 µM | C7 products induced, western blot [2]: detectable upregulation of full length and truncated C7 | Cytotox. % inhibition of viability [3]: 30.8% ± 3.4 at 40 (n=4) | Increase in C7 levels Emax, % vs baseline ([4]; RDEB_L1 cells, at 20 µM, 20 ng/mL TGFß2): 124 ± 76 at 20 % vs baseline | EC50 ([4]; RDEB_L1 cells, read-out: EC50 in the AlphaLISA assay): 4.9 µM | EC50 ([4]; in RDEB_L1 and RDEB_L5 cells, read-out: EC50 (range over two cell lines)): 4.9 to 12 µM | Increase in C7 levels Emax, % vs baseline ([5]; at 25 µM, 20 ng/mL TGFß2): 35.5 at 25 % vs baseline | EC50 ([5]; total C7 AlphaLISA, 48 h, 20 ng/mL TGFß2, relative EC50, mean ± SD, read-out: Increase in C7 levels EC50): 12 µM
